Measurements taken from patent US9376418B2, “Substituted pyridine spleen tyrosine kinase (SYK) inhibitors” (Merck Sharp & Dohme Corp., priority 2012, dated 2016).
pIC50: −log10 of the molar value.

molecular target: T1, recombinant human GST-SYK (Homo sapiens, UniProt P43405); assay: Homogeneous Time-Resolved Fluorescence (HTRF) assay for the recombinant human Syk enzyme; type: biochemical; conditions: HTRF assay, recombinant human GST-SYK; IC50 given as class symbols; read-out: rhSYK Activity
T1 construct: purchased Carna Biosciences 08-176
Method in brief: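 Phosphotyrosine product from a biotinylated Syk substrate peptide was detected by HTRF (europium antibody/SA-APC, read after 30 min) following a 45-minute room-temperature reaction at 25 μM ATP, with […] preincubated 10 minutes with inhibitor.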

SMILES | pIC50
O=C(O)CCc1ccc(-c2cccc(Nc3nccc(C(F)(F)F)n3)c2)cn1 [Example 2.82, 3-[5-(3-{[4-(trifluoromethyl)pyrimidin-2-yl]amino}phenyl)pyridin-2-yl]propanoic acid] | > 7.00
Cc1cc(Nc2nccc(C(F)(F)F)n2)cc(-c2ccnc(N3CCCC4(CCNC4=O)C3)c2)c1 (centres unmarked) [Example 15.29, 7-[4-(3-methyl-5-{[4-(trifluoromethyl)pyrimidin-2-yl]amino}phenyl)pyridin-2-yl]-2,7-diazaspiro[4.5]decan-1-one] | > 7.00
Cc1cc(Nc2nccc(C(F)(F)F)n2)cc(-c2ccnc(NCC(=O)N(C)C)c2)c1 [Example 15.82, N,N-dimethyl-N~2~-[4-(3-methyl-5-{[4-(trifluoromethyl)pyrimidin-2-yl]amino}phenyl)pyridin-2-yl]glycinamide] | 6.00 to 7.00
Cc1cc(Nc2nccc(C(F)(F)F)n2)cc(-c2ccc(N3CCC(C(=O)N4CCC(C(=O)O)CC4)CC3)nc2)c1 [Example 7.141, 1-({1-[5-(3-methyl-5-{[4-(trifluoromethyl)pyrimidin-2-yl]amino}phenyl)pyridin-2-yl]piperidin-4-yl}carbonyl)piperidine-4-carboxylic acid] | > 7.00
Cc1cc(Nc2nccc(C(F)(F)F)n2)cc(-c2ccc(Oc3ccc(C(N)=O)cc3)nc2)c1 [Example 12.3, 4-{[5-(3-Methyl-5-{[4-(trifluoromethyl)pyrimidin-2-yl]amino}phenyl)pyridin-2-yl]oxy}benzamide] | 6.00 to 7.00
Cc1cc(Nc2nccc(C(F)(F)F)n2)cc(-c2ccc(NC3(C(=O)O)CC3)nc2)c1 [Example 7.129, 1-{[5-(3-methyl-5-{[4-(trifluoromethyl)pyrimidin-2-yl]amino}phenyl)pyridin-2-yl]amino}cyclopropanecarboxylic acid] | > 7.00
Cc1cc(Nc2nccc(C3CC3)n2)cc(-c2ccc(C(C)(O)[C@H]3CC[C@H](C(=O)O)CC3)nc2)c1 (stereo partly drawn) [Example 9.6, trans-4-(1-(5-(3-(4-cyclopropylpyrimidin-2-ylamino)-5-methylphenyl)pyridin-2-yl)-1-hydroxyethyl)cyclohexanecarboxylic acid] | > 7.00
Cc1cc(Nc2nccc(C(F)(F)F)n2)cc(-c2cncc(C(O)(CO)CO)c2)c1 [Example 9.80, 2-[5-(3-methyl-5-{[4-(trifluoromethyl)pyrimidin-2-yl]amino}phenyl)pyridin-3-yl]propane-1,2,3-triol] | > 7.00
CCOC(=O)CCc1cccc(-c2cc(C)cc(Nc3nccc(C4CC4)n3)c2)n1 [Example 2.38, ethyl 3-(6-{3-[(4-cyclopropylpyrimidin-2-yl)amino]-5-methylphenyl}pyridin-2-yl)propanoate] | 6.00 to 7.00
Cc1cc(Nc2nccc(C(F)(F)F)n2)cc(-c2ccc(NCC(C)(C)O)nc2)c1 [Example 7.44, 2-methyl-1-{[5-(3-methyl-5-{[4-(trifluoromethyl)pyrimidin-2-yl]amino}phenyl)pyridin-2-yl]amino}propan-2-ol] | > 7.00
COCC1CCCN1c1ccc(-c2cc(C)cc(Nc3nccc(C(F)(F)F)n3)c2)cn1 (centres unmarked) [Example 7.54, N-(3-{6-[2-(methoxymethyl)pyrrolidin-1-yl]pyridin-3-yl}-5-methylphenyl)-4-(trifluoromethyl)pyrimidin-2-amine] | 6.00 to 7.00
Cc1cc(Nc2nccc(C(F)(F)F)n2)cc(-c2ccc(C(=O)NC(C)c3ccccn3)nc2)c1 (centres unmarked) [Example 16.22, 5-(3-methyl-5-{[4-(trifluoromethyl)pyrimidin-2-yl]amino}phenyl)-N-(1-pyridin-2-ylethyl)pyridine-2-carboxamide] | 6.00 to 7.00
Cc1cc(Nc2nccc(C3CC3)n2)cc(-c2ccc(N[C@H]3CC[C@H](C(=O)O)CC3)nc2)c1 [Example 2.104, trans-4-[(5-{3-[(4-cyclopropylpyrimidin-2-yl)amino]-5-methylphenyl}pyridin-2-yl)amino]cyclohexanecarboxylic acid] | > 7.00
COCC1CCCN1c1cc(-c2cc(C)cc(Nc3nccc(C(F)(F)F)n3)c2)ccn1 (centres unmarked) [Example 15.69, N-(3-{2-[2-(methoxymethyl)pyrrolidin-1-yl]pyridin-4-yl}-5-methylphenyl)-4-(trifluoromethyl)pyrimidin-2-amine] | 6.00 to 7.00
CC(=O)NCCNc1ccc(-c2cc(C)cc(Nc3nccc(C(F)(F)F)n3)c2)cn1 [Example 7.37, N-(2-{[5-(3-methyl-5-{[4-(trifluoromethyl)pyrimidin-2-yl]amino}phenyl)pyridin-2-yl]amino}ethyl)acetamide] | > 7.00
COc1ccc(-c2cccc(Nc3nccc(C(F)(F)F)n3)c2)cn1 [Example 2.41, N-[3-(6-methoxypyridin-3-yl)phenyl]-4-(trifluoromethyl)pyrimidin-2-amine] | 6.00 to 7.00
OC1(c2cccc(-c3cc(Nc4nccc(C(F)(F)F)n4)cc(N4CCOCC4)c3)n2)CCC1 [Example 1.1, 1-{6-[3-(Morpholin-4-yl)-5-{[4-(trifluoromethyl)pyrimidin-2-yl]amino}phenyl]pyridin-2-yl}cyclobutanol] | 6.00 to 7.00

SMILES | pIC50
CCN1CCN(c2ccc(-c3cc(C)cc(Nc4nccc(C(F)(F)F)n4)c3)cn2)CC1 [Example 7.49, N-{3-[6-(4-ethylpiperazin-1-yl)pyridin-3-yl]-5-methylphenyl}-4-(trifluoromethyl)pyrimidin-2-amine] | 6.00 to 7.00
O=C(O)CCc1ccc(-c2cccc(Nc3nccc(C(F)(F)F)n3)c2)nc1 [Example 2.16, 3-[6-(3-{[4-(trifluoromethyl)pyrimidin-2-yl]amino}phenyl)pyridin-3-yl]propanoic acid] | 6.00 to 7.00
CC(=O)Nc1cc(Nc2nccc(C(F)(F)F)n2)cc(-c2ccncc2)c1 [Example 6.5, N-(3-pyridin-4-yl-5-{[4-(trifluoromethyl)pyrimidin-2-yl]amino}phenyl)acetamide] | > 7.00
CC(=O)NCCN(C)c1cc(-c2cc(C)cc(Nc3nccc(C(F)(F)F)n3)c2)ccn1 [Example 15.65, N-(2-{methyl[4-(3-methyl-5-{[4-(trifluoromethyl)pyrimidin-2-yl]amino}phenyl)pyridin-2-yl]amino}ethyl)acetamide] | 6.00 to 7.00
Cc1cc(Nc2nccc(C(F)(F)F)n2)cc(-c2ccncc2)c1 [Example 2.124, N-(3-methyl-5-pyridin-4-ylphenyl)-4-(trifluoromethyl)pyrimidin-2-amine] | > 7.00
Cc1cc(Nc2nccc(C(F)(F)F)n2)cc(-c2ccc(NCc3ncnn3C)nc2)c1 [Example 7.21, N-[3-methyl-5-(6-{[(1-methyl-1H-1,2,4-triazol-5-yl)methyl]amino}pyridin-3-yl)phenyl]-4-(trifluoromethyl)pyrimidin-2-amine] | > 7.00
CCC(O)(CC)c1cccc(-c2cccc(Nc3nccc(C(F)(F)F)n3)c2)n1 [Example 2.4, 3-[6-(3-{[4-(trifluoromethyl)pyrimidin-2-yl]amino}phenyl)pyridin-2-yl]pentan-3-ol] | 6.00 to 7.00
NC(=O)c1ccnc(-c2cccc(Nc3nccc(C(F)(F)F)n3)c2)c1 [Example 2.7, 2-(3-{[4-(trifluoromethyl)pyrimidin-2-yl]amino}phenyl)pyridine-4-carboxamide] | 6.00 to 7.00
Cc1cc(Nc2nccc(C(F)(F)F)n2)cc(-c2ccc(NCCc3cnc[nH]3)nc2)c1 [Example 7.24, N-[3-(6-{[2-(1H-imidazol-4-yl)ethyl]amino}pyridin-3-yl)-5-methylphenyl]-4-(trifluoromethyl)pyrimidin-2-amine] | 6.00 to 7.00
Cc1cc(Nc2nccc(C(F)(F)F)n2)cc(-c2ccc(C(=O)N3CCC(C)(O)C3)nc2)c1 (centres unmarked) [Example 16.42, 3-methyl-1-{[5-(3-methyl-5-{[4-(trifluoromethyl)pyrimidin-2-yl]amino}phenyl)pyridin-2-yl]carbonyl}pyrrolidin-3-ol] | > 7.00
Cc1cc(Nc2nccc(C(F)(F)F)n2)cc(-c2ccc(NC(C)(CC(F)(F)F)c3nnn[nH]3)nc2)c1 (centres unmarked) [Example 18.7, N-[3-methyl-5-(6-{[4,4,4-trifluoro-2-(1H-tetrazol-5-yl)butan-2-yl]amino}pyridin-3-yl)phenyl]-4-(trifluoromethyl)pyrimidin-2-amine] | > 7.00
Cc1cc(Nc2nccc(C(F)(F)F)n2)cc(-c2ccnc(N3CCCC4(CCCO4)C3)c2)c1 (centres unmarked) [Example 15.28, N-{3-methyl-5-[2-(1-oxa-7-azaspiro[4.5]dec-7-yl)pyridin-4-yl]phenyl}-4-(trifluoromethyl)pyrimidin-2-amine] | 6.00 to 7.00
Cc1cc(Nc2nccc(C(F)(F)F)n2)cc(-c2ccc(N(C)[C@@H](C)C(=O)O)nc2)c1 [Example 7.104, N-methyl-N-[5-(3-methyl-5-{[4-(trifluoromethyl)pyrimidin-2-yl]amino}phenyl)pyridin-2-yl]-L-alanine] | > 7.00
Cc1cc(Nc2nccc(C(F)(F)F)n2)cc(-c2ccc(N3CCCC(F)(F)C3)nc2)c1 [Example 7.53, N-{3-[6-(3,3-difluoropiperidin-1-yl)pyridin-3-yl]-5-methylphenyl}-4-(trifluoromethyl)pyrimidin-2-amine] | 6.00 to 7.00
Cc1cc(Nc2nccc(C(F)(F)F)n2)cc(-c2ccnc(N3CCCC(F)(F)C3)c2)c1 [Example 15.68, N-{3-[2-(3,3-difluoropiperidin-1-yl)pyridin-4-yl]-5-methylphenyl}-4-(trifluoromethyl)pyrimidin-2-amine] | 6.00 to 7.00
Cc1cc(Nc2nccc(C(F)(F)F)n2)cc(-c2ccc(C(NC(N)=O)(C3CC3)C3CC3)nc2)c1 [Example 19.1, 1-{Dicyclopropyl[5-(3-methyl-5-{[4-(trifluoromethyl)pyrimidin-2-yl]amino}phenyl)pyridin-2-yl]methyl}urea] | > 7.00
Cc1cc(Nc2nccc(C(F)(F)F)n2)cc(-c2ccc(C(F)(F)F)nc2)c1 [Example 4.6, N-{3-methyl-5-[6-(trifluoromethyl)pyridin-3-yl]phenyl}-4-(trifluoromethyl)pyrimidin-2-amine] | 6.00 to 7.00

same assay, conditions: recombinant GST-hSYK, 25 μM ATP, HTRF; read-out: IC50 (inhibition of human Syk activity)

SMILES | pIC50
OC1(c2cccc(-c3cc(Nc4nccc(C(F)(F)F)n4)cc(N4CCOCC4)c3)n2)CCC1 [Example 1.1, 1-{6-[3-(Morpholin-4-yl)-5-{[4-(trifluoromethyl)pyrimidin-2-yl]amino}phenyl]pyridin-2-yl}cyclobutanol] | 6.84
